Experimental data as given in ChEMBL document CHEMBL1125902, “2-aralkoxyadenosines: potent and selective agonists at the coronary artery A2 adenosine receptor” (J Med Chem, 1991).

Columns and labels:
[1] = biological target: T1, Adenosine receptor A1 (Cavia porcellus, UniProt P47745); assay: Effective concentration required for prolongation of the stimulus-QRS interval by 50% of the maximum response at the Adenosine A1 receptor in langendorff guinea pig heart preparation; assay type: functional
T1 sequence (P47745 whole entry): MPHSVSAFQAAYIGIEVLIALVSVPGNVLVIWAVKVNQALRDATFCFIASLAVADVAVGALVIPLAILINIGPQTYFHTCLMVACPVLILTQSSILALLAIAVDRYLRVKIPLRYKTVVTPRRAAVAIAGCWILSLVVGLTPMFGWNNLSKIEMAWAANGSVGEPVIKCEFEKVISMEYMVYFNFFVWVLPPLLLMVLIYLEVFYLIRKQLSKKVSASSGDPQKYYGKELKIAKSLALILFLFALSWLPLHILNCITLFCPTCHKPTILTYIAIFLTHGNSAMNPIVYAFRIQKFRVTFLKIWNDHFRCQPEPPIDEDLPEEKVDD

[2] = biological target: T1, Adenosine receptor A1; assay: Effective concentration required for prolongation of the stimulus-QRS interval by 50% of the maximum response at the A1 adenosine receptor in langendorff guinea pig heart preparation; assay type: functional
[3] = biological target: T2, Adenosine A2 receptor (Homo sapiens, UniProt P29275+P29274)
Description: Concentration required for coronary arteries vasodilation at the A2 adenosine receptor in langendorff guinea pig heart preparation

[4] = biological target: T2, Adenosine A2 receptor; remark: listed apart in the source
Description: Concentration required for coronary arteries vasodilation at the Adenosine A2 receptor in langendorff guinea pig heart preparation

| SMILES | EC50 [1] | EC50 [2] | -Log EC50 [3] | -Log EC50 [4] |
| --- | --- | --- | --- | --- |
| Nc1nc(OCCCCCc2ccccc2)nc2c1ncn2C1O[C@@H](CO)[C@H](O)[C@@H]1O (stereo partly drawn) | – | 4.57 µM | 8.2 | – |
| COc1cccc(CCOc2nc(N)c3ncn(C4O[C@@H](CO)[C@H](O)[C@@H]4O)c3n2)c1 (stereo partly drawn) | 16.2 µM | – | – | 8.59 |
| COc1cc(CCOc2nc(N)c3ncn(C4O[C@@H](CO)[C@H](O)[C@@H]4O)c3n2)cc(OC)c1OC (stereo partly drawn) | 46.8 µM | – | – | 7.66 |
| Nc1nc(OCCc2c[nH]c3ccccc23)nc2c1ncn2C1O[C@@H](CO)[C@H](O)[C@@H]1O (stereo partly drawn) | – | 14.1 µM | 8.01 | – |
| Nc1nc(OCCc2ccsc2)nc2c1ncn2C1O[C@@H](CO)[C@H](O)[C@@H]1O (stereo partly drawn) | 18.6 µM | – | – | […] |
| COc1ccc(CCOc2nc(N)c3ncn(C4O[C@@H](CO)[C@H](O)[C@@H]4O)c3n2)cc1 (stereo partly drawn) | – | 19.5 µM | 8.85 | – |
| COc1ccc(CCOc2nc(N)c3ncn(C4O[C@@H](CO)[C@H](O)[C@@H]4O)c3n2)cc1OC (stereo partly drawn) | 42.7 µM | – | – | 8.31 |
| Nc1nc(OCCc2cccs2)nc2c1ncn2C1O[C@@H](CO)[C@H](O)[C@@H]1O (stereo partly drawn) | 11.7 µM | – | – | 8.43 |
| Cc1ccc(CCOc2nc(N)c3ncn(C4O[C@@H](CO)[C@H](O)[C@@H]4O)c3n2)cc1 (stereo partly drawn) | 7.41 µM | – | – | 9.72 |
| Nc1nc(Oc2ccccc2)nc2c1ncn2C1O[C@@H](CO)[C@H](O)[C@@H]1O (stereo partly drawn) | – | 46.8 µM | 6.38 | – |
| Nc1nc(OCCc2ccc3ccccc3c2)nc2c1ncn2C1O[C@@H](CO)[C@H](O)[C@@H]1O (stereo partly drawn) | 11.5 µM | – | – | 9.3 |
| Nc1nc(OCCc2ccc(F)cc2)nc2c1ncn2C1O[C@@H](CO)[C@H](O)[C@@H]1O (stereo partly drawn) | – | 25.7 µM | 9.06 | – |

Now from value to compound:

| EC50 [1] | EC50 [2] | -Log EC50 [3] | -Log EC50 [4] | SMILES |
| --- | --- | --- | --- | --- |
| 14.5 µM | – | – | – | Nc1nc(OCCc2ccc(Cl)cc2)nc2c1ncn2[C@H]1O[C@@H](CO)[C@H](O)[C@@H]1O |
| – | 20 µM | 7.21 | – | Nc1nc(OCCCc2ccccc2)nc2c1ncn2[C@H]1O[C@@H](CO)[C@H](O)[C@@H]1O |
| – | 21.9 µM | 8.26 | – | Nc1nc(OCCc2ccccc2Cl)nc2c1ncn2C1O[C@@H](CO)[C@H](O)[C@@H]1O (stereo partly drawn) |
| 12.9 µM | – | – | 8.8 | Cc1cccc(CCOc2nc(N)c3ncn(C4O[C@@H](CO)[C@H](O)[C@@H]4O)c3n2)c1 (stereo partly drawn) |
| – | 8.32 µM | – | – | Nc1nc(OCCc2cccc3ccccc23)nc2c1ncn2C1O[C@@H](CO)[C@H](O)[C@@H]1O (stereo partly drawn) |
| 35.5 µM | – | – | 7.5 | COc1ccccc1CCOc1nc(N)c2ncn(C3O[C@@H](CO)[C@H](O)[C@@H]3O)c2n1 (stereo partly drawn) |
| – | 7.08 µM | 8.02 | – | Nc1nc(OCCCCc2ccccc2)nc2c1ncn2C1O[C@@H](CO)[C@H](O)[C@@H]1O (stereo partly drawn) |
| 16.2 µM | – | – | 8.52 | Nc1nc(OCCc2cccc(Cl)c2)nc2c1ncn2C1O[C@@H](CO)[C@H](O)[C@@H]1O (stereo partly drawn) |
| – | 35.5 µM | 8.58 | – | Nc1nc(OCCc2ccccc2F)nc2c1ncn2C1O[C@@H](CO)[C@H](O)[C@@H]1O (stereo partly drawn) |
| – | 34.7 µM | 8.72 | – | Nc1nc(OCCc2cccc(F)c2)nc2c1ncn2C1O[C@@H](CO)[C@H](O)[C@@H]1O (stereo partly drawn) |
| 6.31 µM | – | – | 6.38 | Nc1nc(OCc2ccccc2)nc2c1ncn2C1O[C@@H](CO)[C@H](O)[C@@H]1O (stereo partly drawn) |
| – | 20 µM | 8.55 | – | Nc1nc(OCCc2ccccc2)nc2c1ncn2C1O[C@@H](CO)[C@H](O)[C@@H]1O (stereo partly drawn) |
| 25.1 µM | – | – | 8.42 | Cc1ccccc1CCOc1nc(N)c2ncn(C3O[C@@H](CO)[C@H](O)[C@@H]3O)c2n1 (stereo partly drawn) |
